In a melting point compilation (Tetko et al.; mined from patent text by program, amines drawn as free bases though some values may be those of a salt) one finds melting point data, which are given here for 87 compounds.

Usually melting point stands for the temperature, or range, at which the solid turns liquid.

Compound `O=C(Nc1ccc(-n2nc(C(F)(F)F)cc2C(F)(F)F)cc1)c1cccc(Cl)c1` had a melting point of 142 to 144 °C.
As for `CCCCCCCCCCCCCC/C=C\CC[C@@H]1OC(=O)C(O)=C1O`, the melting point was 64 to 66 °C.
Under `CC#CC(C)(C)NC(=O)C(COC)Oc1ccc2ccncc2c1` (configuration not stated) stands 155 to 156 °C; under `Cc1cc(=O)oc2cc(NCc3ccccc3)ccc12`, 174 to 176 °C.
Under `Cn1ncnc1COc1nn2c(-c3ccc(F)cc3)nncc2c1C(C)(C)C` stands 197 °C.
The result for `CN1C(=O)c2ccc(NCC(O)CCl)cc2C1=O` (configuration not stated) reads 136 to 138 °C; that for `CON(Cc1ccc(NC(C)=O)cc1)C(=O)C1=C(O)C(=O)N(C)C1`, 110 °C.
With `C/C(=C\C(C)O)c1ccc(C2CCCCC2)cc1` (configuration not stated), the melting point was 67.5 to 68 °C.
The result for `COC1=C(OC)C(=O)c2c(C#N)cccc2C1=O` reads 171 to 172 °C.
Compound `COc1ccccc1Oc1c(NS(=O)(=O)c2ccc(C(C)(C)C)cc2)nc(OCCO)nc1OCCOc1ncc(Br)cn1` came in with a melting point of 73.5 to 77 °C.
The result for `Cc1nc2c3c(ccc2n1C1CC1)C(=O)[C@H](O)[C@@H](c1ccccc1)O3` reads 178 °C.
The result for `O=C(N1CCN(c2ccncc2Cl)CC1)N1CCN(S(=O)(=O)c2ccc(Br)cc2)CC1` reads 194 to 195 °C; that for `O=c1[nH]c(=O)c2cn(C3CCCC3)nc2[nH]1`, over 300 °C; that for `CN(C)c1ccc(Cn2cnc3c(-c4ccco4)ncnc32)cc1`, 158 to 160 °C.
`CC(C)(C)OC(=O)N1C2CCC(C2)N1CC(O)C(Cc1ccccc1)NC(=O)OCc1ccccc1` (mixture of isomers) had a melting point of 119 to 126 °C.
Under `CC1(C)CCC(C)(C)c2cc(C(N)C(=O)Nc3ccc(C(=O)OCc4ccccc4)cc3)ccc21` (configuration not stated) stands 196 to 197 °C; under `CC#CCOc1cc(Cc2cccc(F)c2)ncn1`, 51.5 °C.
Under `CC(C)n1cncc1CO` stands 83 to 84 °C.
The result for `Cc1ccc(-c2nc3cc([N+](=O)[O-])ccc3o2)s1` reads 163 to 165 °C; that for `CS(=O)(=O)Nc1cc([C@@H](O)CNC2CCN(c3ccc(S(=O)(=O)N4CC(=O)NC4=O)cc3)CC2)ccc1O`, 200 to 202 °C; that for `COc1ccc(-c2ccc(COCCc3cccc(NS(=O)(=O)C(F)(F)F)c3)cc2)cc1`, 96 to 98 °C.
In turn, `O=C(O)[C@H]1C[C@H](NC(=O)N(c2ccccc2)c2ccccc2)c2c(Cl)cc(Cl)cc2N1` (relative stereo) returned a melting point of 214 to 216 °C.
For `COc1c(/C=C/c2ccc(C(=O)O)cc2)c(C)cc2c1C(C)(C)CCC2(C)C`, the melting point was 222 to 223 °C.
Compound `Cc1cn(Nc2ccncc2)c2ccc(OCc3ccccc3)cc12` came in with a melting point of 168 to 170 °C.
Under `C/C=C/[C@H](O)C[C@]1(C)CCc2c(C)c(OCc3ccccc3)c(C)c(C)c2O1` stands 68 to 70 °C; under `OCC1OC(n2cnc3c(NCC4Cc5cccc6cccc4c56)ncnc32)C(O)C1O` (configuration not stated), 173 to 175 °C.
For the compound `CCOC(=O)c1scc2c1CN(C)C(=O)c1cncn1-2`, the melting point worked out at 208 °C.
The result for `C=CC12CCc3cc(NS(=O)(=O)O)ccc3C1CCC1(C)C(O)CCC12` (configuration not stated) reads 82 to 86 °C; that for `C#C[C@]1(OC(C)=O)CC[C@H]2[C@@H]3CC(=C)C4=CC(=O)CC[C@@H]4[C@H]3CC[C@@]21C`, 157 °C; that for `O=C(CCC(=O)N1CCC[C@H]1C(=O)O)c1ccc(Cl)s1`, 131 to 133 °C.
Under `COc1ccccc1N1CCN(CNC(=O)c2cccc(C)c2)CC1` stands 139 to 142 °C; under `c1ccc(COc2ccc3ccc4cccc5ccc2c3c45)cc1`, 105 to 106 °C.
Under `CON1C(=O)CC2(CCN(CNC(=O)c3ccccc3O)CC2)C1=O` stands 96 to 99 °C; under `CC(=O)SCSc1nnn[nH]1`, 90 °C.
The compound `Cc1c(C)n(CC=CC(F)(F)F)c2c(OCc3ccccc3)nncc12` gave a melting point of 138 to 140 °C.
The result for `CCOc1nc2cccc(C(=O)OC)c2n1Cc1ccc(-c2ccccc2-c2nc(=O)o[nH]2)cc1` reads 186 to 187 °C; that for `CC1(C)CC(=O)C2C(=NC3=C(C(=O)CC(C)(C)C3)C2c2ccc(F)c(C#N)c2)C1` (configuration not stated), 274 to 275 °C; that for `CNC(=O)Cc1c(-c2ccc(C)cc2)nc2n(C)c3ccccc3n12`, 251 to 252 °C.
The result for `C=CC(=O)Nc1ccc(C(=O)C[N+](=O)[O-])c(Cl)c1` reads 140 to 144 °C.
`N#Cc1ccc(F)cc1-c1ccc(OCc2ccccc2)cc1` gave a melting point of 94 to 96 °C.
Under `N#CCC=Cc1ccc(Cc2ccc(C=CCC#N)cc2)cc1` stands 128 to 130 °C; under `FC(F)(F)c1cc(N(Cc2ccsc2)Cc2ccccn2)cc(C(F)(F)F)c1Br`, 58 to 59 °C; under `CS(=O)c1ncc2ccc(=O)n(-c3ccccc3)c2n1` (configuration not stated), 248 to 250 °C.
The result for `N#Cc1cccc(-c2nc(-c3ccc(C(N)=O)cc3)cc3cccnc23)c1` reads 237 to 240 °C.
Under `Cn1c(C(F)(F)F)cc(=O)n(-c2cc(OC(=O)CCC(=O)OCCCl)c(Cl)cc2F)c1=O` stands 94 to 96 °C; under `Nc1ncnc2c1ncn2Cc1oc2ccc(Br)cc2c(=O)c1-c1ccccc1F`, 231 to 233 °C.
`CCOC(=O)CC(=O)c1cc2cc(F)c(F)c(F)c2nc1Cl` displayed a melting point of 78 to 80 °C.
The result for `NCc1ccn(C2=CC3=C(CC2)CCc2[nH]c(=O)c(=O)n(OCC(=O)O)c23)c1` reads over 300 °C; that for `CCOC(=O)Nc1ccc2c(c1)C(c1ccccc1Cl)S(=O)(=O)CCC(=O)N2` (configuration not stated), 295 to 296 °C.
Under `Cc1ccc(C2c3c(C)c(N4CCN(c5ccc(C(F)(F)F)cc5)CC4)c(C)c(C)c3OC2(C)C)cc1` (configuration not stated) stands 180 to 181 °C; under `OC(CCC(c1ccccc1)c1ccccc1)c1cncn1Cc1ccccc1` (configuration not stated), 160 to 168 °C; under `CN(C)C(=O)COc1ccc2ccc(N)nc2n1`, 182 °C.
Under `COc1ccc2c(c1)Sc1cc(OC)c(Cl)cc1C(O)C2` (configuration not stated) stands 105 to 106 °C; under `CCS(=O)(=O)Nc1cccc(C(=C(C)C)c2c[nH]cn2)c1`, 152 to 155 °C.
`CC(C)Cn1c(=O)[nH]c2c(C(N)=O)nc(-c3cccc(O)c3)nc21` yielded a melting point of 374 to 376 °C.
Under `CC(C)Oc1nccc2c1C(c1ccccc1C(F)(F)F)c1c(cc[nH]c1=O)N2` (configuration not stated) stands 315 °C; under `CC12CCC3c4cc(O)c(OCc5ccccc5)cc4CCC3C1CCC2OCc1ccccc1` (configuration not stated), 117 to 118 °C; under `Cc1ccc(-c2cc(CN)c(=O)n(CC(C)C)n2)cc1`, 74.9 to 77.9 °C.
The result for `CCN(C)C(=O)c1nn(-c2ccc(Cl)cc2)c(=O)c2c(N)scc12` reads 148 to 150 °C; that for `CNc1nc(-c2cccc(NC(=O)c3ccccn3)c2)c2cc(OC)c(OC)cc2n1`, 175 to 177 °C; that for `CCOC(=O)c1cc(CC)cnc1CNC(C)(C(N)=O)C(C)C` (configuration not stated), 68 to 72 °C.
Under `CC(C)(C)OC(=O)Nc1c(F)cccc1[N+](=O)[O-]` stands 100 to 101 °C; under `O=C1c2ccccc2C(=O)N1n1cccc1-c1ccccc1`, 168 to 170 °C; under `O=C(C=Cc1ccc(N2CCCC2)nc1)N1CCc2c([nH]c3ccccc23)C1c1ccc2c(c1)CCO2` (configuration not stated), 201 °C.
For `CCOC(=O)NC1Cc2ccccc2C1Nc1ccc(OC)cc1CO` (configuration not stated), the melting point was in the range of 142 to 144 °C.
Take `CCC1OCCn2c1nc(C(=O)NCc1ccc(F)cc1-n1cncn1)c(OCc1ccccc1)c2=O` (configuration not stated): the melting point lay in the range of 155 to 157 °C.
The result for `COC(=O)C1(O/N=C(\C(=O)OC(c2ccccc2)c2ccccc2)c2csc(NC(c3ccccc3)(c3ccccc3)c3ccccc3)n2)CCCCC1` reads 180 to 182 °C.
`O=C1C=C(O)CC(c2ccc3c(c2)CCC3)C1` (configuration not stated): the melting point was determined as 198 °C.
Under `O=C(OCc1ccccc1)c1ccc2[nH]ccc2c1` stands 127 to 129 °C; under `COc1cc2c(cc1OC)[C@@H](c1ccc([N+](=O)[O-])cc1)NN(C1=NC(=O)CS1)[C@@H](C)C2`, 238 to 239 °C.
Under `Cc1c(Cc2cc(Cl)cc(Cl)c2)c(C(F)(F)F)nn1CCO` stands 91 to 93 °C.
Under `COc1cn(-c2ccc(-n3nccc3OC(F)F)cc2F)nc(-c2ccnn2-c2ccccc2)c1=O` stands 177 to 179 °C.
The compound `COCCN1CCn2c1nc(C(=O)NCc1ccc(F)cc1)c(O)c2=O` returned a melting point of 166 °C.
For the compound `CCC(C)C(=O)c1cn(C)cc(-c2cccc(C(F)(F)F)c2)c1=O` (configuration not stated), the melting point was 109 to 111 °C.
The result for `CC(=O)OCC12CCC(=O)C=C1CCC1C2CCC2(C)C(O)CCC12` (configuration not stated) reads 125 to 127 °C.
The result for `CS(=O)CC(=O)c1ccc(Cl)cc1N` (configuration not stated) reads 129 to 132 °C; that for `CCCCCCCCCCCCCCC(=O)C(=O)NCCCC(=O)OCC`, 63 to 64 °C; that for `COC(=O)c1nc2ccc(Cl)cc2c(O)c1C(=O)OC`, 228 to 230 °C.
Turning to `Nc1ccc(Oc2cccc3ccccc23)nc1`, the melting point lay within 82.2 to 83.7 °C.
Regarding `C1COC2(OC1)OCCCO2`, the melting point was in the range of 137 to 140 °C.
As to `CCOC(=O)C(=O)C1C(=O)c2c(OC)ccc3c2C1CCO3` (configuration not stated), the melting point was in the range of 104 to 106 °C.
The result for `Cc1ccc(-c2c(C(=O)NCc3ccccc3)oc(=O)c3ncccc23)cc1` reads 208 to 209 °C; that for `COC(=O)NC1=NCC(c2ccccc2)N1C` (configuration not stated), 145 to 147 °C; that for `CC(C)c1cccc(C(C)C)c1NC(=O)NCC1(c2ccccc2)CC1`, 138 to 142 °C.
The result for `CCCCCCCCCCCCN=C1SC(=CC(=O)O)C(=O)N1CCCCCCCCCCCC` reads 71 to 72 °C; that for `CCOC(=O)c1cc(=O)c(Oc2ccc(OC)cc2)co1`, 106 to 107 °C.
Under `CC12CC(=O)C3C(CCC4CC(O)CCC43C)C1CCC2C(=O)COCCN1CCOCC1` (configuration not stated) stands 112 to 113 °C.
